Test results reported in patent US7427670B2, “Cytochrome P450 24 (CYP24) monoclonal antibody and methods and uses thereof” (Cytochroma Inc., priority 2003, dated 2008).

Tested on: CYP24 protein in HEK cells
Assay: CYP24 protein expression in HEK cells, Western blot with anti-CYP24 mAb and densitometric analysis
Assay type: cell-based, human
Conditions: 10 nM
Description: • Human Epidermal Keratinocyte Cells (HEK) cells (CYP24 expressing cells) • Keratinocyte Growth Medium (KGM®; Cambrex) • HEK Cell Lysis Buffer (0.5 M Tris, pH 6.8, 10% SDS, glycerol, dH2O, protease inhibitor) • 1.7 ml eppendorf tubes • Isopropanol • Enhanced Chemiluminescense (ECL) Western Blotting Detection Reagants (Amersham Pharmacia) • 10 nM Calcitriol (Vitamin D) • 10 nM CTAX (Cytochroma Inc.) (“Vitamin D analog”) • 10 nM CTAY (Cytochroma Inc.) (“Vitamin D analog”) • 10 nM CTAZ (Cytochroma Inc.) (“Vitamin D analog”) • 6-well plates (i) HEK Cell Preparation Method:
125 thousand HEK cells per well were placed in 2.5 ml KGM® (2 plates) and incubated overnight @ 37° C. in 5% CO2. After 24 hours, old KGM® was replaced with fresh 2.5 ml KGM®. For 48 hour samples (Plate 1): 2.5 μl isopropanol was added to 1 well; 2.5 μl 10 μM calcitriol was added to 1 well; 2.5 μl 10 μM CTAX was added to 1 well; 2.5 μl 10 μM CTAY was added to 1 well; 2.5 μl […] was added to 1 well. […]
The effect of CYP24 protein expression in HEK cells treated with CYP24 inhibitors was investigated. […] Cell lysates were then analyzed for CYP24 protein by Western blot analysis using anti-CYP24 mAb as the primary antibody. Each sample was expressed as a relative amount of CYP24 protein compared to the control (control=1 unit).

C=C1/C(=C\C=C2/CCC[C@]3(C)[C@@H]([C@H](C)CCCC(C)(C)O)CC[C@@H]23)C[C@@H](O)C[C@@H]1O [Calcitriol]
induction of CYP24 protein (relative to control = 1 unit) (24 hours): weakly induces
induction of CYP24 protein (relative to control = 1 unit) (48 hours): weakly induces
